# Data from patent publication US6372208B1, “Method of reducing an immune response to a recombinant virus” (The Trustees of the University of Pennsylvania, priority 1996, dated 2002).
# Assays:
# [1] = test system: HT-2 cells; assay: IL-2/IL-4 in supernatants of virus-restimulated MLN lymphocytes, HT-2 cell 3H-thymidine incorporation; type: cell-based, C57BL/6 mice
# Protocol: (§1) Lymphocytes from MLN of the control group and IL-12 treated group of C57BL/6 mice were harvested 28 days after administration of H5.010CBALP and restimulated in vitro with UV-inactivated H5.010CMVlacZ at 10 particles/cell for 24 hours. Cell-free supernatants were assayed for the presence of IL-2 or IL-4 on HT-2 cells (an IL-2 or IL-4-dependent cell line) [Yang I, cited above]. Presence of IFN-γ in the same lymphocyte culture supernatant was measured on L929 cells as described [Yang I, cited above]. Stimulation index (S.I.) was calculated by dividing ^3H-thymidine cpm incorporated into HT-2 cells cultured in supernatants of lymphocytes restimulated with virus by ^3H-thymidine cpm incorporated into HT-2 cells cultured in supernatants of lymphocytes incubated in antigen-free medium.
# [2] = test system: L929 cells; assay: IFN-γ in the same lymphocyte culture supernatant measured on L929 cells; type: cell-based, C57BL/6 mice; details: MLN lymphocytes day 28, restimulated with virus
# Protocol: as §1
# [3] = test system: recombinant adenoviruses H5.010CBALP and H5.010CMVlacZ; assay: Lung-directed adenovirus gene transfer and readministration, transgene expression by histochemistry (Example 2); type: in vivo, C57BL/6 mice
# Protocol: Female C57BL/6 mice (6˜8 week old) were infected with suspensions of H5.010CBALP (1×10^9 pfu in 50 μl of PBS) via the trachea at day 0 and similarly with H5.010CMVlacZ at day 28. One group of such mice was used as a control. Another group of mice were acutely depleted of CD4^+ cells by i.p. injection of antibody to CD4^+ cells (GK1.5; ATCC No. TIB207, 1:10 dilution of ascites) at the time of the initial gene therapy (days −3, 0, and +3). A third group of mice was injected with IL-12 (1 μg intratracheal or 2 μg, i.p. injections) at the time of the first administration of virus (days 0 and +1). A fourth group of mice was injected with gamma interferon. (1 μg intratracheal or 2 μg, i.p. injections) at the time of the first administration of virus (days 0 and +1).
# When mice were subsequently euthanized and necropsied at days 3, 28, or 31, lung tissues were prepared for cryosections, while bronchial alveolar lavage (BAL) and mediastinal lymph nodes (MLN) were harvested for immunological assays.
# The lung tissues were evaluated for ALP expression at day 3 and day 28 by histochemical staining following the procedures of Yang I, cited above. β-galactosidase expression was assayed at day 31 by X-gal histochemical staining. The results described below were obtained from the alkaline phosphatase histochemical stains (magnification ×100) or β-galactosidase X-gal stains (magnification ×100).
# [4] = test system: H5.010CBlacZ; assay: Adenovirus-specific IgG and IgA in BAL by ELISA; type: in vivo, C57BL/6 mice; details: day 28, versus control mice
# Protocol: Adenovirus-specific antibody isotype was determined in BAL by using an enzyme-linked immunosorbent assay (ELISA). Briefly, 96-well plates were coated with 100 μl of PBS containing 5×10^9 particles of H5.010CBlacZ for 18 hours at 4° C. The wells were washed 5 times with PBS. After blocking with 200 μl of 2% BSA in PBS, the plates were rinsed once with PBS and incubated with 1:10 diluted BAL samples for 90 minutes at 4° C. Thereafter, the wells were extensively washed and refilled with 100 μl of 1:1000 diluted ALP-conjugated anti-mouse IgG or IgA (Sigma). The plates were incubated, subsequently washed 5 times, and 100 μl of the substrate solution (p-nitrophenyl phosphate, PNPP) was added to each well. Substrate conversion was stopped by the addition of 50 μl of 0.1M EDTA, and reactions were read at 405 nm.
# The results are shown graphically in FIGS. 1A through 1C, which summarize neutralizing antibody titer, and the relative amounts (OD405) of IgG and IgA present in BAL samples.
# [5] = test system: recombinant adenoviruses H5.010CBALP and H5.010CMVlacZ; assay: Liver-directed adenovirus gene transfer and readministration (Example 3); type: in vivo, C57BL/6 mice
# Protocol: Experiments substantially identical to those described in Example 2 above were conducted in which viral vectors were administered into the blood for introduction of the transgene into the liver (rather than intratracheal delivery into the lung).
# Female C57BL/6 mice (6-8 weeks old) were injected with suspensions of H5.010CBALP (1×10^9 pfu in 50 μl of PBS) i.p. at day 0 and similarly with H5.010CMVlacZ at day 28. One group of such mice was used as a control. Another group of mice was acutely depleted of CD4^+ cells by i.p. injection of antibody to CD4^+ cells (GK1.5; ATCC No. TIB207, 1:10 dilution of ascites) at the time of the initial gene therapy (days −3, 0, and +3). A third group of mice was injected with IL-12 (2 μg, i.p. injections) at the time of the first administration of virus (days 0 and +1). A fourth group of mice was injected with gamma interferon (2 μg, i.p. injections) at the time of the first administration of virus (days 0 and +1) .
# When mice were subsequently euthanized and necropsied at days 3, 28, or 31, liver tissues were prepared for cryosections according to the procedures used above for lung tissue in Example 2.
# The cryosection results were substantially similar for liver-directed gene therapy according to this method as for the lung-directed therapy of Example 2 above. The results described below were obtained from the alkaline phosphatase histochemical stains (magnification ×100) or β-galactosidase X-gal stains (magnification ×100).
substance,measurement,setting,value
interleukin-12 [IL-12],"3H-Thymidine Incorporation (cpm ± SD), Medium","[1]; MLN lymphocytes 28 days after H5.010CBALP, antigen-free medium",247 ± 34 cpm
same,"3H-Thymidine Incorporation (cpm ± SD), H5.010CMVlacZ","[1]; MLN lymphocytes day 28, restimulated with UV-inactivated H5.010CMVlacZ 24 hours",5203 ± 28 cpm
same,"3H-Thymidine Incorporation (cpm ± SD), H5.010CMVlacZ","[1]; as E2, with anti-IL2 (1:5000)",776 ± 50 cpm
same,"3H-Thymidine Incorporation (cpm ± SD), H5.010CMVlacZ","[1]; as E2, with anti-IL4 (1:5000)",4608 ± 52 cpm
same,ratio of IL-2/IL-4,"[1]; lymphocytes stimulated in vitro with virus, 3 without IL-12",6
same,S.I. (stimulation index),[1]; virus restimulated / antigen-free medium,21.07
same,S.I. (stimulation index),[1]; with anti-IL2 (1:5000),3.14
same,S.I. (stimulation index),[1]; with anti-IL4 (1:5000),18.66
same,[formula] (column head not readable; IFN-γ in supernatant),[2],160
same,transgene expression after first administration of virus (ALP),"[3]; lung, intratracheal, days 3 and 28",diminished after about one month
same,gene transfer upon second administration of virus (lacZ),"[3]; lung, readministered day 28, read day 31",high level gene transfer to airway epithelial cells was achieved
same,inflammation and transgene persistence following a second administration of virus,[3]; treatment at the time of intratracheal instillation of virus,did not enhance inflammation or diminish transgene persistence
same,IgG in BAL,[4],without significantly impacting on formation of IgG
same,virus specific IgA in BAL,[4],selectively blocked secretion of antigen specific IgA
same,transgene expression after first administration of virus (ALP),"[5]; liver, days 3 and 28",diminished after about one month
same,gene transfer upon second administration of virus (lacZ),"[5]; liver, readministered day 28, read day 31",some gene transfer to the liver via the blood was achieved
same,neutralizing antibodies,"[5]; liver-directed gene therapy, Example 3",the level of neutralizing antibody was reduced
